In US8273776B2, “Biphenyl oxadiazole derivatives as sphingosine-1-phosphate receptors modulators” (Allergan, Inc, priority 2010, dated 2012):

Target: T1, human S1P1 receptor (Homo sapiens, UniProt P21453)
T1 construct: expressed in transfected cells; membranes used
Assay: GTP γ35S binding assay for S1P1 activity
Type: biochemical
Conditions: for % S1P1 STIMULATION @ 5 μM (%): GTPγ^35S binding, compound at 5 μM; for EC50: membranes of cells stably expressing the S1P1 receptor, test compounds 0.08 to 5,000 nM, read-out: S1P1 GTPγ^35S EC50
Procedure: Compounds were synthesized and tested for S1P1 activity using the GTP γ^35S binding assay. These compounds may be assessed for their ability to activate or block activation of the human S1P1 receptor in cells stably expressing the S1P1 receptor.
GTP γ^35S binding was measured in the medium containing (mM) HEPES 25, pH 7.4, MgCl2 10, NaCl 100, dithitothreitol 0.5, digitonin 0.003%, 0.2 nM GTP γ^35S, and 5 μg membrane protein in a volume of 150 μl. Test compounds were included in the concentration range from 0.08 to 5,000 nM unless indicated otherwise. Membranes were incubated with 100 μM 5′-adenylylimmidodiphosphate for 30 min, and subsequently with 10 μM GDP for 10 min on ice. Drug solutions and membrane were mixed, and then reactions were initiated by adding GTP γ^35S and continued for 30 min at 25° C. Reaction mixtures were filtered over Whatman GF/B filters under vacuum, and washed three times with 3 mL of ice-cold buffer (HEPES 25, pH7.4, MgCl2 10 and NaCl 100). Filters were dried and mixed with scintillant, and counted for ^35S activity using a β-counter. Agonist-induced GTP γ^35S binding was obtained by subtracting that in the absence of agonist. Binding data were analyzed using a non-linear regression method. In case of antagonist assay, the reaction mixture contained 10 nM S1P in the presence of test antagonist at concentrations ranging from 0.08 to 5000 nM.

T1 sequence (P21453 whole entry): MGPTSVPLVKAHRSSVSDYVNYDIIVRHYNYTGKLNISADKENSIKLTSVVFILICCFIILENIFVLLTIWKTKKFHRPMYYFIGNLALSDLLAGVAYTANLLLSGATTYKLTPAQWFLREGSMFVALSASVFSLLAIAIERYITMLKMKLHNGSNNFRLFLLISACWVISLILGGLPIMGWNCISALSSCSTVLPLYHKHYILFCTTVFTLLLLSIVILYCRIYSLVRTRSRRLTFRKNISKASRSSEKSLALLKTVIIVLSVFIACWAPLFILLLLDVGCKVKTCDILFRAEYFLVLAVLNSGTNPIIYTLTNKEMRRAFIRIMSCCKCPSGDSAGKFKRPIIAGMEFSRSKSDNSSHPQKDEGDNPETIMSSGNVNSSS

% S1P1 STIMULATION @ 5 μM (%)	EC50	SMILES
85%	82 nM	CC(C)Oc1ccc(-c2nc(-c3ccccc3-c3cccc(OCCCNCC(=O)O)c3)no2)cc1C#N [Compound 3, (3-{2′-[5-(3-Cyano-4-isopropoxy-phenyl)-[1,2,4]oxadiazol-3-yl]-biphenyl-3-yloxy}-propylamino)-acetic acid]
96%	552 nM	O=C(O)CNCCCOc1cccc(-c2ccccc2-c2noc(-c3ccc(-c4cccc(F)c4)c(C(F)(F)F)c3)n2)c1 [Compound 2, (3-{2′-[5-(3′-Fluoro-2-trifluoromethyl-biphenyl-4-yl)-[1,2,4]oxadiazol-3-yl]-biphenyl-3-yloxy}-propylamino)acetic acid]
76%	1420 nM	CC(C)Oc1ccc(-c2nc(-c3ccccc3-c3cccc(OCCCO)c3)no2)cc1C#N [Compound 1, 5-{3-[3′-(3-Hydroxy-propoxy)-biphenyl-2-yl]-[1,2,4]oxadiazol-5-yl}-2-isopropoxy-benzonitrile]
